In series [1] the test system is human cystinotic fibroblasts (GM00008). The series is described as follows: Cytotoxicity (MTT cell viability) in cystinotic fibroblast cell culture. It counts as cell-based. Conditions: 25, 50 or 75 μM, 48 and 72 hours (FIGS. 1 and 2), MTT. The method, then:
Appropriate concentrations of the NACA and diNACA were selected and incubated along with human cystinotic fibroblasts in media. […] Media was then removed, and cells were incubated in 0.5mg/ml MTT (3-(4,5-dimethylthiazol-2-yl)-2,5-diphenyltetrazolium bromide) reconstituted in media. A colorimetric assay used reduction of the yellow tetrazolium salt (MTT) to a purple formazan salt in order to measure cellular metabolic activity as a proxy for cell viability. Treated cells were incubated in MTT for 4 hours at 37° C., after which time intracellular purple formazan salt crystals were visible under a microscope. MTT solution was then removed, and DMSO was added to each well in order to lyse cells and dissolve the salt crystals. After 1 hour incubation at 37° C., absorbance was measured on a multiwell plate reader (Biotek FL6000) at 570 nm, and percentage cell viability calculated.

The conditions of series [2]: eyedrops, stored at −20° C. until dispensed, kept refrigerated once opened; cited from earlier work.
A further series relates to rabbit eyes. The series is described as follows: Ophthalmic tolerability, daily Draize scores after topical ocular administration. It counts as in vivo. Conditions: rabbits. On the procedure: To simulate topical ocular exposure to an ophthalmic insert containing AGENT, prototype ophthalmic formulations were prepared containing either 1% NPI-001, 1% diNACA, 1% NAC or vehicle and tested to evaluate ocular tolerability. Three rabbits per group were administered 1% NPI-001, 1% di-NAC, 1% NAC in a prototype vehicle, via bilateral topical administration four times a day for 6 days, and once on Day 7.

The conditions of series [3]: humans, oral dose of 600 mg; cited from earlier work.
Setting [4] is: 1% in prototype vehicle, bilateral topical four times a day, Day 1, per animal and eye.
The mark [5] stands for this setting: 1% in prototype vehicle, bilateral topical four times a day, Day 2, per animal and eye.
The mark [6] stands for this setting: 1% in prototype vehicle, bilateral topical four times a day, Day 3, per animal and eye.
Setting [7] is: 1% in prototype vehicle, bilateral topical four times a day, Day 4, per animal and eye.
Setting [8] is: 1% in prototype vehicle, bilateral topical four times a day, Day 5, per animal and eye.
[9] abbreviates: 1% in prototype vehicle, bilateral topical four times a day, Day 6, per animal and eye.
Where [10] appears, read: 1% in prototype vehicle, bilateral topical, once on Day 7, Day 7, per animal and eye.
[11] abbreviates: 1% in prototype vehicle, bilateral topical, (baseline), per animal and eye.

“And” between values parts separate entries of the source, which are not always exact repeats. Equal entries are not always repeated.

Regarding `NCCS` [cysteamine, reference compound], the “cell viability (cytotoxicity) versus no treatment” value in series [1] was “increased cell viability”. Besides, the shelf life in series [2] is 1 week.
For `CC(=O)NC(CS)C(=O)O` (stereo not shown) [NAC, N-acetylcysteine, reference compound], in the series with rabbit eyes (setting [4]), the “Daily Draize Scores for Chemosis, Day 1” value is recorded as 0; the “Daily Draize Scores for Discharge, Day 1” value is listed as 0; the “Daily Draize Scores for Hyperemia, Day 1” value came out at 0. Also, in the series with rabbit eyes (setting [5]), the “Daily Draize Scores for Chemosis, Day 2” value is given as 0; the “Daily Draize Scores for Discharge, Day 2” value was 0 (4×) and 0.5 (2×); the “Daily Draize Scores for Hyperemia, Day 2” value was 0 (4×) and 0.5 (2×). In the series with rabbit eyes (setting [6]), the “Daily Draize Scores for Chemosis, Day 3” value is 0; the “Daily Draize Scores for Discharge, Day 3” value came to 0; the “Daily Draize Scores for Hyperemia, Day 3” value was 0 (3×) and 0.5 (3×). Also, in the series on rabbit eyes (setting [7]), the “Daily Draize Scores for Chemosis, Day 4” value is 0; the “Daily Draize Scores for Discharge, Day 4” value was 0 (4×) and 1 and 0.5; the “Daily Draize Scores for Hyperemia, Day 4” value amounted to 0. Besides, in the series on rabbit eyes (setting [8]), the “Daily Draize Scores for Chemosis, Day 5” value turned out to be 0; the “Daily Draize Scores for Discharge, Day 5” value is 0.5 and 0 (5×); the “Daily Draize Scores for Hyperemia, Day 5” value was 0. Moreover, in the series with rabbit eyes (setting [9]), the “Daily Draize Scores for Chemosis, Day 6” value is 0; the “Daily Draize Scores for Discharge, Day 6” value is 0 (3×) and 1 (3×); the “Daily Draize Scores for Hyperemia, Day 6” value is reported as 0. For the same molecule, in the series on rabbit eyes (setting [10]), the “Daily Draize Scores for Chemosis, Day 7” value worked out at 0; the “Daily Draize Scores for Discharge, Day 7” value was 0.5 (4×) and 1 and 0; the “Daily Draize Scores for Hyperemia, Day 7” value was 1 (3×) and 0.5 (3×). Moreover, in the series with rabbit eyes (setting [11]), the “Daily Draize Scores for Chemosis, Day B” value is on record as 0; the “Daily Draize Scores for Discharge, Day B” value was found to be 0; the “Daily Draize Scores for Hyperemia, Day B” value is 0. For the same molecule, the “ocular hyperemia, observation over the study” value in the series on rabbit eyes (1%, four times a day for 6 days, once on Day 7) was “mild hyperemia was observed at low frequencies”. Further, in series [3], the “time after administration at which no NAC is detectable” value is 10 to 12 h.

Source of the values: patent US20210378993A1 (Nacuity Pharmaceuticals, Inc., priority 2020, published 2021).
